In data set [1] the test system is Lolium multiflorum (Ryegrass) seeds. The data set can be described thus: whole plant or invertebrate. The class given is in vivo. The note with it: agar germination; for Radicle growth inhibition (%): 67 µg/mL, 20 °C, evaluated after 12 days, three replicates of ten seeds, relative to DMSO negative control. The protocol: The herbicidal activity of cyclotetrapeptides 16–25, 27 and the linear precursors 4–8, 10, 12–15 were evaluated for their influence on germination, leaf development and radicle length growth of ryegrass seeds at 67 μg/mL using germination in agar methodology. DMSO was used as negative control and the herbicide S-metolachlor as positive control. […] The results were expressed as % of radicle growth inhibition, calculated as the percentage between the treatment with each compound and radicle length growth for the negative control (DMSO), as shown in Figure 3.
The experiments to determine the herbicidal activity of the cyclopeptide compounds were carried out on Lolium multiflorum (Raygrass) plants. Germination, root length and leaf development were evaluated, compared to a control without herbicide, a negative control (100 μL DMSO in 15 mL agar, used as solvent) and an herbicide control (1/8 of the commercial dose of the herbicide S-metolachlor).
Serial experiments were conducted using the Agar germination methodology, where the tested compounds and the respective controls were placed in glass Petri dishes (6 cm diameter) in three replicates per treatment. Ten ryegrass seeds were germinated in a growth chamber (20 °C, day/night temperature). The seeds were previously sterilized by immersing them in 70% alcohol for 10 s. When distributed in the Petri dish on the agar, the seeds were placed in such a way as to ensure that they remained submerged in the solution.
Agar–water solution was prepared at 0.3%, 3 g of agar was placed in 1 liter of deionized water, and the solution was autoclaved at 100 °C for 45 min. Once the agar medium had cooled to approximately 60 °C, the solutions were prepared.
The negative control–DMSO control was prepared by adding 100 μL of DMSO per plate in 15 mL of agar and then the seeds were distributed, as mentioned above. A control without DMSO was also carried out to check that the product was not altering the correct development of the ryegrass seeds. For this test, 15 ml of agar were placed in each Petri dish and, before it solidified, the seeds of the species evaluated were placed on top. The herbicide treatment, positive control–Control S-Metolachlor (960 g/L), was carried out for a conversion of 1/8 of the dose of 1 L/ha of commercial product. For this purpose, a stock solution of S-Metolachlor was prepared by placing 0.28 mL of the herbicide in a volumetric flask and topping up to 1000 mL. A total of 25 mL of this stock solution were taken, placed in a volumetric flask and brought to 200 mL, thus, generating the 1/8x solution of S-Metolachlor. A volume of 3 mL of 1/8x herbicide solution was mixed with 45 mL of the agar solution to bring 16 mL into each Petri dish. This ensured that there was 1 mL of 1/8x S-Metolachlor solution per plate: 0.28 μL of herbicide solution. Seeds were arranged in the same way. Using the same method, the agar media corresponding to each plate (15 mL) was mixed with the cyclopeptides dissolved in 100 μL of DMSO.
Germination, root length and leaf development were evaluated 12 days after preparation. The variables of germinated plants and plants with developed leaves of the total number of plants placed to germinate were analyzed by fitting a generalized linear model, since they presented a binomial distribution.
Glinmix procedure of the SAS statistical package. Based on the model and for the comparison of the treatments with the different controls, the contrasts of interest were carried out. The effect of the treatments on the root length variable was studied by comparing means using a Tukey test (p-value < 0.05) in INFOSTAT.
5. Procedure for evaluation of phytotoxic activity
Experiments for determining the herbicidal activity of cyclopeptide compounds were carried out on Lolium multiflorum (Ray grass) plants. Germination, root length, and leaf development were evaluated compared to a control without herbicide, a negative […]

Data set [2] shares this test system. In kind it is in vivo. The settings on record: agar germination.
For data set [3] the following is noted: amide bond, 12-membered ring.
In data set [4] the test system is Lolium multiflorum (Ryegrass) seeds. The note with it: 67 μg/mL; cited from earlier work.
Another data set concerns cyanobacteria. The note with it: cited from earlier work.
The test system of a further data set is HepG2 cells. The note with it: cited from earlier work.
Where [5] appears, read: 11 µM, 12 days, relative to DMSO control.
The mark [6] stands for this setting: 6 µM, 12 days, relative to DMSO control.

The values below come from article PMC9656801, “Synthesis of Cyclotetrapeptides Analogues to Natural Products as Herbicides” (Molecules, 2022).

Like-named read-outs stand apart in the source and are kept apart here. Non-standard residues stand in square brackets, D forms with d. Residues, ends and D or L forms follow the SMILES beside them. NMeF = CN[C@@H](Cc1ccccc1)C(=O)O; dNMeF = CN[C@H](Cc1ccccc1)C(=O)O; NMeA = CN[C@@H](C)C(=O)O; Sar = CNCC(=O)O

As for `CC(C)C[C@H](NC(=O)[C@H](C)N)C(=O)N[C@@H](Cc1ccccc1)C(=O)N(C)CC(=O)O` [Compound 6, NH2-Ala-Leu-Phe-NMeGly-OH] (H-ALF[Sar]-OH), in data set [1], the “Radicle growth inhibition (%)” value is 92% and greater than 85%.
For `CC(C)C[C@H](NC(=O)[C@H](C)N)C(=O)N(C)[C@H](Cc1ccccc1)C(=O)NCC(=O)O` [Compound 7, NH2-Ala-Leu-N-Me-D-Phe-Gly-OH] (H-AL[dNMeF]G-OH), the “Radicle growth inhibition (%)” value in data set [1] is 94% and greater than 85%; in data set [2] (setting [5]), 48%.
For `CC(C)C[C@H](NC(=O)[C@H](C)N)C(=O)N(C)[C@@H](Cc1ccccc1)C(=O)N(C)CC(=O)O` [Compound 10, NH2-Ala-Leu-N-MePhe-N-MeGly-OH] (H-AL[NMeF][Sar]-OH), the “Radicle growth inhibition (%)” value in data set [1] is given as “greater than 85%”; in data set [2] (setting [5]) it was 15%.
Take `CN[C@@H](C)C(=O)N[C@@H](Cc1ccccc1)C(=O)N(C)[C@@H](Cc1ccccc1)C(=O)NCC(=O)O` [Compound 13, N-MeAla-Phe-N-MePhe-Gly-OH] (H-[NMeA]F[NMeF]G-OH): the “Radicle growth inhibition (%)” value in data set [1] was “greater than 85%”; in data set [2] (5 µM, 12 days, relative to DMSO control), 38%.
With `CN[C@H](Cc1ccccc1)C(=O)N[C@@H](C)C(=O)N[C@@H](Cc1ccccc1)C(=O)N(C)CC(=O)O` [Compound 14, N-Me-D-Phe-Ala-Phe-N-MeGly-OH] (H-[dNMeF]AF[Sar]-OH), the “Radicle growth inhibition (%)” value in data set [2] (67 µM as printed) came out at 53%.
With `CC(C)C[C@@H]1NC(=O)[C@H](C)NC(=O)CN(C)C(=O)[C@H](Cc2ccccc2)N(C)C1=O` [Compound 22, Cyclo-[Ala-Leu-N-MePhe-N-MeGly]] (cyclo(AL[NMeF][Sar])), the “Radicle growth inhibition (%)” value in data set [1] was determined as 66%.
On the same count and under the same terms, the result for `CC(C)C[C@@H]1NC(=O)[C@H](C)N(C)C(=O)CN(C)C(=O)[C@H](Cc2ccccc2)NC1=O` [Compound 23, Cyclo-[N-MeAla-Leu-Phe-N-MeGly]] (cyclo([NMeA]LF[Sar])) reads 16%.
As for `CC(C)C[C@@H]1NC(=O)[C@H](C)N(C)C(=O)CNC(=O)[C@H](Cc2ccccc2)N(C)C1=O` [Compound 24, Cyclo-[N-MeAla-Leu-N-MePhe-Gly]] (cyclo([NMeA]L[NMeF]G)), the “Radicle growth inhibition (%)” value in data set [1] is listed as 81%; in data set [2] (10 µM, 12 days, relative to DMSO control), 62%.
As for `C[C@H]1C(=O)N[C@@H](Cc2ccccc2)C(=O)N(C)[C@@H](Cc2ccccc2)C(=O)NCC(=O)N1C` [Compound 25, Cyclo-[N-MeAla-Phe-N-MePhe-Gly]] (cyclo([NMeA]F[NMeF]G)), the “Radicle growth inhibition (%)” value is 96% and greater than 85% in data set [1]; 41% in data set [2] (4 µM, 12 days, relative to DMSO control).
As for `C[C@@H]1NC(=O)[C@@H](Cc2ccccc2)N(C)C(=O)CN(C)C(=O)[C@H](Cc2ccccc2)NC1=O` [Compound 26, Cyclo-[N-Me-D-Phe-Ala-Phe-N-MeGly]] (cyclo([dNMeF]AF[Sar])), the “Radicle growth inhibition (%)” value is reported as 45% in data set [2] (7 µM, 12 days, relative to DMSO control) and 67% in data set [2] (45 µg/mL, 12 days, relative to DMSO control).
Consider `CC(C)C[C@@H]1NC(=O)[C@H](C)NC(=O)CN(C)C(=O)[C@@H](Cc2ccccc2)NC1=O` [Cyclo [Ala-Leu-D-Phe-N-MeGly]], for which the ring closure, isolated yield in data set [3] (from H-Ala-Leu-dPhe-MeGly-OH) was determined as 76%.
Take `CC(C)C[C@@H]1NC(=O)[C@H](C)NC(=O)CNC(=O)[C@@H](Cc2ccccc2)NC1=O` [Cyclo-[Ala-Leu-D-Phe-Gly]]: the ring closure, isolated yield in data set [3] (from H-Ala-Leu-dPhe-Gly-OH) was 5%.
Compound `CC(C)C[C@@H]1NC(=O)[C@H](C)NC(=O)CNC(=O)[C@@H](Cc2ccccc2)N(C)C1=O` [Cyclo-[Ala-Leu-N-Me-D-Phe-Gly]] yielded a ring closure, isolated yield in data set [3] (from H-Ala-Leu-dMePhe-Gly-OH) of 66%.
Take `CC(C)C[C@@H]1NC(=O)[C@H](C)NC(=O)CN(C)C(=O)[C@H](Cc2ccccc2)N(C)C1=O` [Cyclo-[Ala-Leu-N-MePhe-N-MeGly]]: the ring closure, isolated yield in data set [3] (from H-Ala-Leu-MePhe-MeGly-OH) was 33%.
`CC(C)C[C@@H]1NC(=O)[C@H](C)NC(=O)CN(C)C(=O)[C@H](Cc2ccccc2)NC1=O` [Cyclo-[Ala-Leu-Phe-N-MeGly]] returned a ring closure, isolated yield in data set [3] (from H-Ala-Leu-Phe-MeGly-OH) of 40%.
In data set [3] (from H-MeAla-Leu-Phe-MeGly-OH), `CC(C)C[C@@H]1NC(=O)[C@H](C)N(C)C(=O)CN(C)C(=O)[C@H](Cc2ccccc2)NC1=O` [Cyclo-[N-MeAla-Leu-Phe-N-MeGly]] displayed a ring closure, isolated yield of 38%.
`CCc1cccc(C)c1N(C(=O)CCl)[C@@H](C)COC` [S-metolachlor, reference compound]: the inhibition at 2.1 µg/mL in data set [1] (Lolium multiflorum, 288 h, positive control at 2.1 µg/mL (1/8 of the commercial dose), 12 days, read-out: Radicle growth inhibition (%)) came out at 100%.
In the case of “Cyclo-[Ala-Leu-D-Phe-Gly] (head to tail) [Compound 16]”, in data set [1], the “Radicle growth inhibition (%)” value is “inactive”.
“Cyclo-[Ala-Leu-N-Me-D-Phe-Gly] (head to tail) [Compound 19]”: the “Radicle growth inhibition (%)” value is 87% and greater than 85% in data set [1]; 53% in data set [2] (9 µM, 12 days, relative to DMSO control).
As to Cyclo-[N-Me-D-Phe-Ala-Phe-N-MeGly], in data set [3], the ring closure, isolated yield stood at 17%.
On to Cyclo-[N-MeAla-Leu-D-Phe-Gly], for which the ring closure, isolated yield in data set [3] was 67%.
As to “Cyclo-[N-MeAla-Leu-D-Phe-Gly] (head to tail) [Compound 20]”, the results for the “Radicle growth inhibition (%)” value in data set [1] and in data set [2] (setting [6]) were 74% and 32%, respectively.
Compound Cyclo-[N-MeAla-Leu-N-MePhe-Gly] came in with a ring closure, isolated yield in data set [3] of 47%.
Cyclo-[N-MeAla-Leu-Phe-Gly] yielded a ring closure, isolated yield in data set [3] of 48%.
As to “Cyclo-[N-MeAla-Leu-Phe-Gly] (head to tail) [Compound 17]”, the “Radicle growth inhibition (%)” value in data set [2] (setting [6]) was 10%.
For the compound Cyclo-[N-MeAla-Phe-N-MePhe-Gly], in data set [3], the ring closure, isolated yield came out at 86%.
The same measure, in the same setting: the figure for Cyclo-[Phe-N-MeGly-Cys(Bn)-N-MeGly] is 54%.
In the case of versicotide D, the radicle growth inhibition in data set [4] was 74%. Also, in the data set with cyanobacteria, the “inhibition of cyanobacteria population” value is “ability to inhibit cyanobacteria population”. In addition, the “cytotoxicity on HepG2 cells” value with HepG2 cells is “low cytotoxicity”.

For orientation: inhibition means the relative decrease from the control value, in per cent.
